Source: US5874405A, “Heat shock protein peptides that share sequences with cyclic nucleotide phosphodiesterase and methods for modulating autoimmune central nervous system disease” (priority 1994, dated 1999)
Where no end group is shown, it is not given here.

Tested on: antibodies in cerebrospinal fluid (CSF) and sera
Test: Dot-blot analysis of CSF and sera for antibodies to CNP 173-184 peptide
Type: binding, human
Conditions: for patients whose CSF had antibodies to the peptide: data not shown
Procedure: Cerebrospinal fluid (CSF) and sera from MS patients and controls were analyzed for antibodies to the peptide derived from CNP isoform 2 (corresponding to amino acids 173-184) using dot-blot analyses. Samples from nine MS patients and five patients with other neurologic diseases (OND) were analyzed. The CNP 173-184 peptide coupled to BSA was adsorbed onto nitrocellulose membranes. Control wells received BSA alone. Two dilutions of paired spinal fluids and sera were added to the wells and the amount of antibody binding determined using peroxidase labeled anti-human IgG and an enhanced chemiluminescent assay (ECL Western Blotting Kit; Amersham International, Plc., Buckinghamshire, England). Using the public domain program, Image 1.40 (available from NIH), the integrated densities of the dots in the CNP 173-184 peptide wells and BSA wells were determined.

LKKLKPGLEKDF [CNP 173-184 peptide]
patients whose CSF had antibodies to the peptide (MS patients): 5/9 | patients whose CSF had antibodies to the peptide (OND patients): 0/5 | densities in peptide wells relative to BSA wells (MS CSF): approximately twofold | number of patients with antibodies in sera (MS patients): 3 | number of patients with antibodies in sera (OND patients): 1
